Results on 21 compounds are retold here after patent publication US10080366B2, “Agent for increasing sugar content in fruit” (RIKEN, priority 2012, dated 2018).

The structures appear in SMILES notation. Like-named read-outs stand apart in the source and are kept apart here.

In assay [1] the test system is clusters of grape (variety: Crimson). Put plainly: Estimated transpiration ratio of grape clusters (Example 9). In kind it is in vivo. The conditions noted are these: 10 g/L; 8 days after treatment.
Assay [2] relates to harvested fruit of grape (variety: Barikan). On the procedure:
The fruit of grape was maintained in an air-conditioned greenhouse (temperature: 25° C.), and measured for the mass over time. The sugar content of the fruit was measured before the application and 8 days after the application with a sugar content meter. Next, on the assumption that the change in the mass of the fruit was entirely due to the change in water content, calculated values of the amount of decrease in mass and the sugar content on the date (June 2) of the application were determined […] by using the following calculation formula. (Calculated as follows: the sugar content (%) calculated value))=the sugar content (%) before application×the mass (g) on the date of application/the mass (g) on the date of measurement))

The next assay relates to Mikan. The conditions noted are these: 6 days after treatment.
A further assay has as its system Tomato. The note with it: 6 days after treatment.
Assay [3] has as its system fruit of grape (variety: Red Globe). On the procedure:
An agent for increasing a sugar content in a fruit (containing Sorbon T-20 as a spreader/sticker at a final concentration of 200 μL/L) diluted with water to have a potassium hydrogen carbonate concentration of 10 g/L was prepared. The mass of fruit of grape (variety: Red Globe) purchased on the market was measured. Then, the prepared agent for increasing a sugar content in a fruit was applied by spraying to the fruit of grape. Then, the fruit of grape was allowed to stand in an air-conditioned greenhouse (temperature: 25° C.), and the mass was measured over time (date of application: Apr. 27, 2011; dates of test: May 2, 2011, May 6, 2011, May 9, 2011, May 11, 2011, May 13, 2011, and May 16, 2011). In addition, as a control, the mass of untreated grape was measured on each date of measurement in the same manner.
On the basis of the measured mass, the estimated amount (cumulative value) of transpiration and the estimated amount of transpiration per day were calculated. The results are shown in Tables 5 and 6 and FIGS. 10 and 11.
Note that the vertical axis in FIG. 10 represents the mass (g) of the fruit of grape on each of the dates of measurement per 100 g of the fruit of grape on the date of application, and the vertical axis in FIG. 11 represents the estimated amount (g) of transpiration on each of the dates of measurement per 100 g of the fruit of grape on the date of application. The estimated amount (g) of transpiration on each of the dates of measurement per 100 g of the fruit of grape on the date of application=(the mass (g) of the fruit of grape on the date of application−the mass (g) of the fruit of grape on the date of measurement)/the mass of the fruit of grape on the date of application×100

Where [4] appears, read: 10 g/L, 25° C., mass 100 g on date of application.

For `O=C([O-])C(O)C(O)C(=O)[O-].[K+].[K+]` (racemic) [DL-Potassium tartrate, reference compound], in assay [1], the “Estimated transpiration ratio (%) Average” value is 22% and the “Estimated transpiration ratio (%) First” value is recorded as 22%.
Take `CC(O)C(=O)[O-].[Na+]` (racemic) [DL-Sodium lactate, reference compound]: in assay [1], the “Estimated transpiration ratio (%) Average” value was 26%, the “Estimated transpiration ratio (%) First” value is listed as 26% and the “Estimated transpiration ratio (%) Second” value is 25%.
Take `N.N.O=C(O)O` [Ammonium carbonate, reference compound]: in assay [1], the “Estimated transpiration ratio (%) Average” value was 26%, the “Estimated transpiration ratio (%) First” value is recorded as 25% and the “Estimated transpiration ratio (%) Second” value is listed as 28%.
In the same order, the values of `N.N.O=S(=O)(O)O` [Ammonium sulfate, reference compound] are 22%, 21% and 23%.
`[Ca+2].[Cl-].[Cl-]` [Calcium chloride, reference compound]: the “Sugar content (%) 8 days later, actually measured value” in assay [2] (10 g/L, 25° C.) was 20.0%. Besides, in assay [2] (setting [4]), the “Mass (g) 6 days later (Jun. 8)” value is recorded as 86.3 g and the “Mass (g) 8 days later (Jun. 10)” value is reported as 81.9 g. For the same compound, in assay [2] (10 g/L, 8 days), the “action to increase the sugar content in the fruit (comparison)” value is on record as “almost the same as that of the untreated group”. Further, the “Sugar content (%) 8 days later, calculated value” in assay [2] (10 g/L, calculated from decrease in mass) was 20.8%. In addition, the “Sugar content (%) on date of application (Jun. 2)” value in assay [2] (before application) worked out at 17.0%.
As to `O=P([O-])([O-])O.[K+].[K+]` [Dipotassium hydrogen phosphate, dipotassium hydrogen phosphate], in assay [1], the “Estimated transpiration ratio (%) Average” value is 28% and the “Estimated transpiration ratio (%) First” value is given as 28%.
`O=P([O-])([O-])O.[Na+].[Na+]` [Disodium hydrogen phosphate, disodium hydrogen phosphate]: in assay [1], the “Estimated transpiration ratio (%) Average” value is 31%, the “Estimated transpiration ratio (%) First” value is 35% and the “Estimated transpiration ratio (%) Second” value was 28%.
In the case of `O=C([O-])CCC(=O)[O-].[Na+].[Na+]` [Disodium succinate], in assay [1], the “Estimated transpiration ratio (%) Average” value is recorded as 31% and the “Estimated transpiration ratio (%) First” value is 31%.
With `O=C([O-])[O-].[Mg+2]` [Magnesium carbonate, magnesium carbonate], in assay [1], the “Estimated transpiration ratio (%) Average” value was 32% and the “Estimated transpiration ratio (%) First” value was 32%.
`[Cl-].[Cl-].[Mg+2]` [Magnesium chloride, reference compound]: in assay [1], the “Estimated transpiration ratio (%) Average” value is 25% and the “Estimated transpiration ratio (%) First” value was 25%.
Consider `O=S(=O)([O-])[O-].[Mg+2]` [Magnesium sulfate, reference compound], for which, in assay [1], the “Estimated transpiration ratio (%) Average” value is reported as 23% and the “Estimated transpiration ratio (%) First” value is listed as 23%.
Regarding `CC(=O)[O-].[K+]` [Potassium acetate, potassium acetate], in assay [1], the “Estimated transpiration ratio (%) Average” value is reported as 35%, the “Estimated transpiration ratio (%) First” value is on record as 35% and the “Estimated transpiration ratio (%) Second” value is recorded as 35%.
As to `[Cl-].[K+]` [Potassium chloride, reference compound], in assay [1], the “Estimated transpiration ratio (%) Average” value is listed as 25% and the “Estimated transpiration ratio (%) First” value is on record as 25%.
As for `O=S(=O)([O-])[O-].[K+].[K+]` [Potassium sulfate, reference compound], in assay [1], the “Estimated transpiration ratio (%) Average” value was 24% and the “Estimated transpiration ratio (%) First” value is given as 24%.
As to `CC(=O)[O-].O.O.O.[Na+]` [Sodium acetate trihydrate], in assay [1], the “Estimated transpiration ratio (%) Average” value is given as 34%, the “Estimated transpiration ratio (%) First” value is given as 35% and the “Estimated transpiration ratio (%) Second” value is listed as 33%.
`CC(=O)[O-].[Na+]` [Sodium acetate, sodium acetate]: the “Ratio (%) of decrease in body weight of fruit” value (“Ratio (%) of decrease” below) in the assay on Mikan (dilution ratio 50 (20 g/L)) came out at 11.4%; in the assay with Mikan (dilution ratio 100 (10 g/L)), 11.2%; in the assay on Tomato (dilution ratio 50 (20 g/L)) it was 14.5%; with Tomato (dilution ratio 100 (10 g/L)), 15.6%.
For `O=C([O-])[O-].[Na+].[Na+]` [Sodium carbonate, sodium carbonate], the “Ratio (%) of decrease” value with Mikan (dilution ratio 100 (10 g/L)) was 10.4%; with Tomato (dilution ratio 100 (10 g/L)), 12.7%. In addition, the “Estimated transpiration ratio (%) Average” value in assay [1] is 32%. In addition, the “Estimated transpiration ratio (%) First” value in assay [1] is 32%. Besides, the “Estimated amount (g) of transpiration per 100 g of fruit on date of application” value was 14.1 g in assay [3] (5 days later); 24.1 g in assay [3] (9 days later); 30.3 g in assay [3] (12 days later); 34.6 g in assay [3] (14 days later); 38.7 g in assay [3] (16 days later); 44.5 g in assay [3] (19 days later). In addition, the “Mass (g) of fruit per 100 g of fruit on date of application” value (“Mass (g) of fruit per 100 g of fruit” for short) is reported as 85.9 g in assay [3] (5 days later (applied Apr. 27)); 75.9 g in assay [3] (9 days later); 69.7 g in assay [3] (12 days later); 65.4 g in assay [3] (14 days later); 61.3 g in assay [3] (16 days later); 55.5 g in assay [3] (19 days later).
Take `[Cl-].[Na+]` [Sodium chloride, reference compound]: in assay [1], the “Estimated transpiration ratio (%) Average” value was 22% and the “Estimated transpiration ratio (%) First” value is listed as 22%.
As for `O=C([O-])O.[Na+]` [Sodium hydrogen carbonate, sodium hydrogen carbonate], the “Ratio (%) of decrease” value in the assay with Mikan (dilution ratio 100 (10 g/L)) is given as 11.4%; in the assay on Tomato (dilution ratio 100 (10 g/L)), 12.8%. The “Estimated transpiration ratio (%) Average” value in assay [1] was 30%. In addition, the “Estimated transpiration ratio (%) First” value in assay [1] is 33%. For the same compound, the “Estimated transpiration ratio (%) Second” value in assay [1] is reported as 28%. Moreover, the “Estimated amount (g) of transpiration per 100 g of fruit on date of application” value in assay [3] (5 days later) is recorded as 12.4 g; in assay [3] (9 days later) it was 21.7 g; in assay [3] (12 days later), 27.3 g; in assay [3] (14 days later), 31.5 g; in assay [3] (16 days later), 35.6 g; in assay [3] (19 days later), 41.5 g. Also, the “Mass (g) of fruit per 100 g of fruit” value in assay [3] (5 days later (applied Apr. 27)) was 87.6 g; in assay [3] (9 days later), 78.3 g; in assay [3] (12 days later), 72.7 g; in assay [3] (14 days later), 68.5 g; in assay [3] (16 days later), 64.4 g; in assay [3] (19 days later), 58.5 g.
For `O=C([O-])CC(O)(CC(=O)[O-])C(=O)[O-].[K+].[K+].[K+]` [Tripotassium citrate], in assay [1], the “Estimated transpiration ratio (%) Average” value is recorded as 30%, the “Estimated transpiration ratio (%) First” value is recorded as 32% and the “Estimated transpiration ratio (%) Second” value is 28%.
Take `O=P([O-])([O-])[O-].[K+].[K+].[K+]` [Tripotassium phosphate, tripotassium phosphate]: the “Estimated amount (g) of transpiration per 100 g of fruit on date of application” value in assay [3] (5 days later) is recorded as 15.9 g; in assay [3] (9 days later) it was 26.3 g; in assay [3] (12 days later) it was 33.1 g; in assay [3] (14 days later), 37.6 g; in assay [3] (16 days later), 41.1 g; in assay [3] (19 days later), 47.4 g. Besides, the “Mass (g) of fruit per 100 g of fruit” value is listed as 84.1 g in assay [3] (5 days later (applied Apr. 27)); 73.7 g in assay [3] (9 days later); 66.9 g in assay [3] (12 days later); 62.4 g in assay [3] (14 days later); 58.3 g in assay [3] (16 days later); 52.8 g in assay [3] (19 days later).
